Molecules are shown by their SMILES.

The record followed here is patent publication US12419309B2, “Chemical composition for seed treatment” (Yara UK Limited, priority 2019, dated 2025).

The test system of this data set is seeds of leguminous crops. As to the kind of experiment: Liquid composition coated on seeds of leguminous crops, dried and sowed in soil. The class given is in vivo. To be noted: monoethanolamine as component of the composition. An excerpt: The liquid composition as disclosed herein was coated on seeds of leguminous crops and the seeds were dried and sowed in soil. The germination rate was increased as well as the number of nodules, the mass of roots and the amount of dry matter in the shoots.

Turning to `NCCO` [Monoethanolamine], the “Effect on the growth of nodules” value is “no detrimental effect”.
